# From PMC7067850, “Identification of highly potent and selective inhibitor, TIPTP, of the p22phox-Rubicon axis as a therapeutic agent for rheumatoid arthritis” (Scientific Reports, 2020)
# Key:
# [1] = molecular target: T1, p22phox–Rubicon interaction (Homo sapiens, UniProt P13498); experiment: p22phox–Rubicon interaction, co-IP in 293T cells co-transfected with V5-p22phox and Flag-Rubicon; assay type: cell-based; conditions: inhibition of p22phox–Rubicon interaction, compounds 0.01-20 μM for 24 h (Supplemental Fig. 5a)
# T1 construct: The plasmid encoding full-length of the p22phox (V5-p22phox) and Rubicon (Flag-Rubicon) were previously described; expressed in transfected cells; host or cells: HEK293T (293T) cells, transient co-transfection
# T1 sequence (P13498 1-195): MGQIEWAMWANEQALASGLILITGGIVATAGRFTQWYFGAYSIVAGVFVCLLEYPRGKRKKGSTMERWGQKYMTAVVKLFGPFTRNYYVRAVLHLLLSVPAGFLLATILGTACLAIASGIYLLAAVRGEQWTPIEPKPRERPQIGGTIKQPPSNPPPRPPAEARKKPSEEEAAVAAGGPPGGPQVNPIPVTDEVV
# Protocol: Immunoblot and immunoprecipitation assays were performed as described previously[18],[23]. For immunoprecipitation, cells were harvested and then lysed in NP-40 buffer supplemented with a complete protease inhibitor cocktail (Roche). After pre-clearing with protein A/G agarose beads (GE Healthcare Life Science) for 1 h at 4 °C, whole-cell lysates were used for immunoprecipitation with the indicated antibodies. Generally, 1–4 μg of commercial antibody was added to 1 ml of cell lysates and incubated at 4 °C for 8 to 12 h. After the addition of protein A/G agarose beads for 6 h, immunoprecipitants were extensively washed with lysis buffer and eluted with SDS loading buffer by boiling for 5 min.
# For immunoblotting, polypeptides were resolved by SDS-polyacrylamide gel electrophoresis and transferred to a PVDF membrane (Bio-Rad). […] Antibody binding was visualized by chemiluminescence (ECL; Millipore) and detected by a Vilber chemiluminescence analyzer (Fusion SL 3; Vilber Lourmat).
# (a) 293T cells were co-transfected with V5-p22phox and Flag-Rubicon. 12 h post transfection, cells were treated with compound 1 or 2 (0.01, 0.1, 1, 5, 10, 20 μM) for 24 h, and subjected to IP with αFlag, followed by IB with αV5. WCLs were used for IB with αFlag, αV5, or αActin. […]
# BMDMs = experiment: MTT assay for cell viability; assay type: cell-based, mouse; conditions: different concentrations and times (Fig. 3b)
# Protocol: The mouse macrophage cell line RAW264.7 (ATCC TIB-71; American Type Culture Collection) and HEK293T (ATCC-11268) cells were maintained in DMEM (Invitrogen) containing 10% FBS (Invitrogen), sodium pyruvate, nonessential amino acids, penicillin G (100 IU/ml), and streptomycin (100 μg/ml). Transient transfections were performed with Lipofectamine 3000 (Invitrogen), or calcium phosphate (Clontech), according to the manufacturer’s instructions. Raw264.7 stable cell lines were generated using a standard selection protocol with 2 μg/ml of puromycin. Mouse primary bone marrow derived-macrophages (BMDMs) were isolated from C57BL/6 mice and cultured in DMEM for 3–5 days in the presence of 25 ng/ml recombinant macrophage colony stimulating factor (R&D Systems, 416-ML, Minneapolis, MN, USA), as described previously. Human adherent monocytes were prepared from PBMCs donated by healthy subjects, as described previously.
# Figure 3 TIPTP robustly suppresses LPS/ATP-mediated Rubicon-p22phox interaction and ROS-mediated inflammation. (a) Structure of the TIPTP. (b) MTT assay for cell viability. BMDMs were incubated with TIPTP for the indicated times at the indicated TIPTP concentrations (upper). WCLs were used for IB with α22phox, αRubicon, or αActin (lower). […] Quantitative analysis of mean fluorescence intensities of ROS (lower). […] (f) Culture supernatants were harvested and analyzed for cytokines by ELISA. […]
smiles,measurement,setting,value
"C[C@@H](Oc1cccc(-n2cc3c(n2)CCCC3)c1)C(=O)Nc1nnc(C(F)(F)F)s1 [TIPTP, (R)-2-(3-(4,5,6,7-tetrahydro-2H-indazol-2-yl)phenoxy)-N-(5-(trifluoromethyl)-1,3,4-thiadiazol-2-yl)propanamide]",IC50,[1],100 nM
same,cell viability of BMDMs,BMDMs,did not induce any significant change
